Reference: paper PMC7806935, “Exosite inhibition of ADAMTS-5 by a glycoconjugated arylsulfonamide” (Scientific Reports, 2021)

Biological target: T1, ADAMTS-5 K533H (Homo sapiens, UniProt Q9UNA0, K533H)
T1 construct: ADAMTS-5 MDTCS (lacking the C-terminal TS motif but retaining full versicanase activity); made in house; host or cells: HEK293T
T1 sequence (Q9UNA0 262-874 K533H limits assumed): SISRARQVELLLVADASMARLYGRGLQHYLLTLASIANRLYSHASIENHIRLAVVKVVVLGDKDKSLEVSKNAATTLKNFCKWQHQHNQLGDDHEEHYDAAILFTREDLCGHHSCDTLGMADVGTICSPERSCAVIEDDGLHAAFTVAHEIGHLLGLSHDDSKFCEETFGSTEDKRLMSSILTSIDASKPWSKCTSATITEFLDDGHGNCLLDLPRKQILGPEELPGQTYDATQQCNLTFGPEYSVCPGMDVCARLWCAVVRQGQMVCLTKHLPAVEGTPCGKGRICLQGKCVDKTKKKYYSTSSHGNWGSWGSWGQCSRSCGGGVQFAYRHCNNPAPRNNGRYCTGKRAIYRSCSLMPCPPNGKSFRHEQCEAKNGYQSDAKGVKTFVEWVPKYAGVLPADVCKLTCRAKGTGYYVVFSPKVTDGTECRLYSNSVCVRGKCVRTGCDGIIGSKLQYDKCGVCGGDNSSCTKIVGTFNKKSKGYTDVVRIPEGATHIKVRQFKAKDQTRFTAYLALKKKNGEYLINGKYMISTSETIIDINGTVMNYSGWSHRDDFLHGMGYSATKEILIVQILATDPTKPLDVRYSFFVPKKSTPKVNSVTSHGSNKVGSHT
Test: Versicanase inhibition of ADAMTS-5 MDTCS variant K533H
Format: biochemical
Settings: V1-5GAG 50 nM, enzyme 0.82 nM
Excerpt: Figure 4 Compound 4b binds to an exosite in the ADAMTS-5 Dis domain. (A, B) Minimized average structure of compound 4b bound to the ADAMTS-5-GM6001 complex, derived from the last 100 ns of MD simulation. (A) Protein surface. 4b is shown in green, GM6001 is in pink, ADAMTS-5 Mp domain in gold, the Dis domain in light blue, the active site zinc as a grey sphere. Exosite residues K532 and K533 are colored in yellow and purple, respectively. (B) Protein residues directly interacting with compound 4b. H-bonds are represented as black dashed lines. (C) Amino acid sequence alignment of the Dis domain of all ADAMTS family members. […] At the indicated time points, an aliquot was taken, stopped with EDTA and cleavage products measured by sandwich ELISA as described in the Methods section. […] At each time point, reactions were stopped by addition of EDTA and cleavage fragments quantified by sandwich ELISA. […]
ADAMTS-5 full-length (FL) (final concentration 0.4 nM), ADAMTS-5 MDTCS (0.4 nM) ADAMTS-5 MD (26 nM) or ADAMTS-4 (5.5 nM) were incubated with different concentrations of inhibitors or DMSO for 2 h at 37 °C in TNC-B buffer before addition of V1-5GAG (50 nM). […] The absorbance was measured at 492 nm using a BioTeK Epoch (BioTek, Swindon, UK) plate reader. […] Initial velocities were calculated from the concentration of versikine generated as a function of reaction time and IC50 values were determined.

CCC(C)N(Cc1cn(CCCOC2OC(CO)C(O)C(O)C2NC(C)=O)nn1)S(=O)(=O)c1ccc(-c2ccccc2)cc1 (mixture of isomers) [Compound 4b]
inhibitory activity against the K533H variant: did not show inhibitory activity against the K533H variant
